In brackets after ≈: the same amount, converted by molar mass. Like-named read-outs stand apart in the source and are kept apart here.
Tests used:
[1] = test system: Bacillus cereus IAM 1729; test: MIC by agar dilution method; format: cell-based; conditions: IAM1729
Source text: (§1) Also shown in the same table are the MIC's obtained for josamycin (JM) and erythromycin (EM) as controls.

[2] = test system: Bacillus subtilis ATCC 6633 (MS-1); test: MIC by agar dilution method; format: cell-based; conditions: ATCC6633
Source text: as §1

[3] = test system: Enterobacter aerogenes ATCC 13048 (MS-1); test: MIC by agar dilution method; format: cell-based; conditions: Klebsiella aerogenes, ATCC13048
Source text: as §1

[4] = test system: Enterobacter cloacae 963 (MS-1); test: MIC by agar dilution method; format: cell-based
Source text: as §1

[5] = test system: Escherichia coli K12 C600 (MS-1); test: MIC by agar dilution method; format: cell-based; conditions: E. coli K12 C600 (MS-1)
Source text: as §1

[6] = test system: Escherichia coli NIHJ-JC-2 (MS-1); test: MIC by agar dilution method; format: cell-based; conditions: NIHJJC2, E. coli NIHJ-JC-2 (MS-1)
Source text: as §1

[7] = test system: Klebsiella pneumoniae PCI-602 (MS-1); test: MIC by agar dilution method; format: cell-based
Source text: as §1

[8] = test system: Micrococcus luteus ATCC 9341 (MS-1); test: MIC by agar dilution method; format: cell-based; conditions: ATCC9341
Source text: as §1

[9] = test system: Mycoplasma pneumoniae; test: MIC by agar dilution method; format: cell-based
Source text: as §1

[10] = test system: Proteus morganii IFO 3848 (MS-1); test: MIC by agar dilution method; format: cell-based; conditions: Morganella morganii, IFO3848
Source text: as §1

[11] = test system: Proteus rettgeri IFO 3850 (MS-1); test: MIC by agar dilution method; format: cell-based; conditions: Providencia rettgeri, IFO3850
Source text: as §1

[12] = test system: Proteus vulgaris OX-19 (MS-1); test: MIC by agar dilution method; format: cell-based
Source text: as §1

[13] = test system: Pseudomonas aeruginosa IFO 3445 (MS-1); test: MIC by agar dilution method; format: cell-based; conditions: IFO3445
Source text: as §1

[14] = test system: Pseudomonas aeruginosa NCTC 10490 (MS-1); test: MIC by agar dilution method; format: cell-based; conditions: NCTC10490
Source text: as §1

[15] = test system: Pseudomonas aeruginosa PAO 1 (MS-1); test: MIC by agar dilution method; format: cell-based
Source text: as §1

[16] = test system: Salmonella enteritidis G 14 (MS-1); test: MIC by agar dilution method; format: cell-based; conditions: Salmonella enterica
Source text: as §1

[17] = test system: Salmonella paratyphi 1015 (MS-1); test: MIC by agar dilution method; format: cell-based; conditions: Salmonella enterica
Source text: as §1

[18] = test system: Salmonella schottmuelleri 8006 (MS-1); test: MIC by agar dilution method; format: cell-based
Source text: as §1

[19] = test system: Salmonella typhi 901 (MS-1); test: MIC by agar dilution method; format: cell-based; conditions: Salmonella enterica
Source text: as §1

[20] = test system: Salmonella typhimurium IID971 (MS-1); test: MIC by agar dilution method; format: cell-based; conditions: Salmonella enterica
Source text: as §1

[21] = test system: Serratia marcescens IAM 1184 (MS-1); test: MIC by agar dilution method; format: cell-based; conditions: IAM1184
Source text: as §1

[22] = test system: Staphylococcus aureus FDA 209PJC-1 (MS-1); test: MIC by agar dilution method; format: cell-based
Source text: as §1

[23] = test system: Staphylococcus aureus MS 353 (MS-1); test: MIC by agar dilution method; format: cell-based
Source text: as §1

[24] = test system: Staphylococcus aureus Terajima (MS-1); test: MIC by agar dilution method; format: cell-based
Source text: as §1

[25] = test system: Streptococcus pyogenes Cook (MS-1); test: MIC by agar dilution method; format: cell-based
Source text: as §1

[26] = test system: Staphylococcus aureus MS 12917 Mac^r; test: MIC by agar dilution method; format: cell-based
Source text: as §1
(§2) Note: "Mac^r " stands for a constitutive macrolide resistant

[27] = test system: Staphylococcus aureus MS 15009 (pI258) Mac^r; test: MIC by agar dilution method; format: cell-based
Source text: as §1, §2

[28] = Solubility; format: physicochemical
[29] = agar dilution, Bacillus cereus IAM 1729, read-out: MIC
[30] = agar dilution, Bacillus subtilis ATCC 6633 (MS-1), read-out: MIC
[31] = agar dilution, Enterobacter aerogenes ATCC 13048 (MS-1), read-out: MIC
[32] = agar dilution, Enterobacter cloacae 963 (MS-1), read-out: MIC
[33] = agar dilution, Klebsiella pneumoniae PCI-602 (MS-1), read-out: MIC
[34] = agar dilution, Micrococcus luteus ATCC 9341 (MS-1), read-out: MIC
[35] = agar dilution, Mycoplasma pneumoniae, read-out: MIC
[36] = agar dilution, Proteus morganii IFO 3848 (MS-1), read-out: MIC
[37] = agar dilution, Proteus rettgeri IFO 3850 (MS-1), read-out: MIC
[38] = agar dilution, Proteus vulgaris OX-19 (MS-1), read-out: MIC
[39] = agar dilution, Pseudomonas aeruginosa IFO 3445 (MS-1), read-out: MIC
[40] = agar dilution, Pseudomonas aeruginosa NCTC 10490 (MS-1), read-out: MIC
[41] = agar dilution, Pseudomonas aeruginosa PAO 1 (MS-1), read-out: MIC
[42] = agar dilution, Salmonella enteritidis G 14 (MS-1), read-out: MIC
[43] = agar dilution, Salmonella typhimurium IID971 (MS-1), read-out: MIC
[44] = agar dilution, Serratia marcescens IAM 1184 (MS-1), read-out: MIC
[45] = agar dilution, S. aureus FDA 209PJC-1 (MS-1), read-out: MIC
[46] = agar dilution, S. aureus MS 353 (MS-1), read-out: MIC
[47] = agar dilution, S. aureus Terajima (MS-1), read-out: MIC
[48] = agar dilution, Streptococcus pyogenes Cook (MS-1), read-out: MIC

SMILES	MIC [5] [µg/mL]	MIC [6] [µg/mL]	MIC [17] [µg/mL]	MIC [18] [µg/mL]	MIC [19] [µg/mL]	MIC [26] [µg/mL]	MIC [27] [µg/mL]	MIC [1, 29] [µg/mL]	MIC [2, 30] [µg/mL]	MIC [3, 31] [µg/mL]	MIC [4, 32] [µg/mL]	MIC [7, 33] [µg/mL]	MIC [8, 34] [µg/mL]	MIC [10, 36] [µg/mL]	MIC [11, 37] [µg/mL]	MIC [12, 38] [µg/mL]	MIC [13, 39] [µg/mL]	MIC [14, 40] [µg/mL]	MIC [15, 41] [µg/mL]	MIC [16, 42] [µg/mL]	further results
CC[C@H]1OC(=O)[C@H](C)[C@@H](O[C@H]2C[C@@](C)(OC)[C@@H](O)[C@H](C)O2)[C@H](C)[C@@H](O[C@@H]2O[C@H](C)C[C@H](N(C)C)[C@H]2O)[C@](C)(O)C[C@@H](C)C(=O)[C@H](C)[C@@H](O)[C@]1(C)O [EM, erythromycin, reference compound]	50 (≈ 68.1 µM)	100 (≈ 136 µM)	25 (≈ 34.1 µM)	50 (≈ 68.1 µM)	50 (≈ 68.1 µM)	> 100	> 100														MIC ([1]; Bacillus cereus): 0.2 µg/mL (≈ 0.273 µM); MIC ([2]; Bacillus subtilis): < 0.1 µg/mL; MIC [3]: 100 µg/mL (≈ 136 µM); MIC ([4]; Enterobacter cloacae): > 100 µg/mL; MIC ([7]; Klebsiella pneumoniae): 6.25 µg/mL (≈ 8.52 µM); MIC ([8]; Micrococcus luteus): < 0.1 µg/mL; MIC ([9]; Mycoplasma): 0.1 µg/mL (≈ 0.136 µM); MIC [10]: 25 µg/mL (≈ 34.1 µM); MIC [11]: > 100 µg/mL; MIC ([12]; Proteus vulgaris): > 100 µg/mL; MIC ([13]; Pseudomonas aeruginosa): > 100 µg/mL; MIC ([14]; Pseudomonas aeruginosa): > 100 µg/mL; MIC ([15]; Pseudomonas aeruginosa): > 100 µg/mL; MIC ([16]; ENTERITIDIS): 100 µg/mL (≈ 136 µM); MIC [20]: 100 µg/mL (≈ 136 µM); MIC ([21]; Serratia marcescens): 100 µg/mL (≈ 136 µM); MIC [22]: 0.2 µg/mL (≈ 0.273 µM); MIC [23]: 0.2 µg/mL (≈ 0.273 µM); MIC [24]: 0.2 µg/mL (≈ 0.273 µM); MIC ([25]; Streptococcus pyogenes): 0.2 µg/mL (≈ 0.273 µM)
CO[C@@H]1[C@@H](O[C@@H]2O[C@H](C)[C@@H](O[C@H]3C[C@@](C)(O)[C@@H](OC(=O)CC(C)C)[C@H](C)O3)[C@H](N(C)C)[C@H]2O)[C@@H](CC=O)C[C@@H](C)[C@@H](O)/C=C/C=C/C[C@@H](C)OC(=O)C[C@H]1OC(C)=O [JM, josamycin, reference compound]	> 100	> 100	100 (≈ 121 µM)	> 100	> 100	> 100	> 100	0.39 (≈ 0.471 µM)	0.39 (≈ 0.471 µM)	> 100	> 100	12.5 (≈ 15.1 µM)	< 0.1	> 100	> 100	> 100	> 100	> 100	> 100	> 100	MIC [9, 35]: 0.2 µg/mL (≈ 0.242 µM); MIC [20, 43]: > 100 µg/mL; MIC [21, 44]: > 100 µg/mL; MIC [22, 45]: 0.2 µg/mL (≈ 0.242 µM); MIC [23, 46]: 0.78 µg/mL (≈ 0.942 µM); MIC [24, 47]: 0.78 µg/mL (≈ 0.942 µM); MIC [25, 48]: 0.2 µg/mL (≈ 0.242 µM)
CCC1OC(=O)CC(O)C(C)C(OC2OC(C)C(OC3CC(C)(O)C(O)C(C)O3)C(N(C)C)C2O)C(CC=O)CC(C)C(=O)C=CC2(C)OC2C1C (stereo not drawn) [M 119-a]	100 (≈ 135 µM)	> 100	50 (≈ 67.4 µM)	100 (≈ 135 µM)	100 (≈ 135 µM)	> 100	> 100	0.39 (≈ 0.526 µM)	0.2 (≈ 0.27 µM)	> 100	> 100	12.5 (≈ 16.8 µM)	< 0.1	50 (≈ 67.4 µM)	> 100	> 100	> 100	> 100	> 100	> 100	MIC [9, 35]: 0.1 µg/mL (≈ 0.135 µM); MIC [20, 43]: > 100 µg/mL; MIC [21, 44]: > 100 µg/mL; MIC [22, 45]: 0.2 µg/mL (≈ 0.27 µM); MIC [23, 46]: 0.78 µg/mL (≈ 1.05 µM); MIC [24, 47]: 0.78 µg/mL (≈ 1.05 µM); MIC [25, 48]: 0.2 µg/mL (≈ 0.27 µM); Solubility ([28]; in hexane, ether and water): insoluble; Solubility ([28]; in methanol and chloroform): Soluble
CCC1OC(=O)CC(O)C(C)C(OC2OC(C)C(OC3CC(C)(O)C(O)C(C)O3)C(N(C)C)C2O)C(CC=O)CC(C)C(=O)C=CC2(C)OC2C1(C)O (stereo not drawn) [M 119-d]	100 (≈ 132 µM)	> 100	25 (≈ 33 µM)	25 (≈ 33 µM)	100 (≈ 132 µM)	> 100	> 100	1.56 (≈ 2.06 µM)	0.78 (≈ 1.03 µM)	100 (≈ 132 µM)	> 100	12.5 (≈ 16.5 µM)	0.2 (≈ 0.264 µM)	50 (≈ 66 µM)	> 100	> 100	> 100	> 100	> 100	> 100	MIC [20, 43]: > 100 µg/mL; MIC [21, 44]: > 100 µg/mL; MIC [22, 45]: 0.78 µg/mL (≈ 1.03 µM); MIC [23, 46]: 3.13 µg/mL (≈ 4.13 µM); MIC [24, 47]: 3.13 µg/mL (≈ 4.13 µM); MIC [25, 48]: 0.78 µg/mL (≈ 1.03 µM); Solubility ([28]; in hexane, ether and water): insoluble; Solubility ([28]; in methanol and chloroform): Soluble

— patent publication US4734492A, “Macrolide antibiotic M 119” (Kirin Beer Kabushiki Kaisha, priority 1985, dated 1988)
